What was measured:
Assay in all cases: biochemical
Set-up in all cases: KINOMEscan active-site-directed competition binding panel, 468 kinases, percent of DMSO control at 1 uM
Settings in all cases: KINOMEscan binding, percent of DMSO control; read-out: Ctrl%
ACVRL1 = ACVRL1 (Homo sapiens, UniProt P37023)
CAMK2G = CAMK2G (Homo sapiens, UniProt Q13555)
CASK = CASK (Homo sapiens, UniProt O14936)
CTK = target: T1, CTK (Homo sapiens, UniProt P42679)
T1 construct: gene MATK

EGFR(L861Q) = EGFR(L861Q) (Homo sapiens, UniProt P00533, L861Q)
EGFR(L861Q), sequence (P00533 whole entry L861Q): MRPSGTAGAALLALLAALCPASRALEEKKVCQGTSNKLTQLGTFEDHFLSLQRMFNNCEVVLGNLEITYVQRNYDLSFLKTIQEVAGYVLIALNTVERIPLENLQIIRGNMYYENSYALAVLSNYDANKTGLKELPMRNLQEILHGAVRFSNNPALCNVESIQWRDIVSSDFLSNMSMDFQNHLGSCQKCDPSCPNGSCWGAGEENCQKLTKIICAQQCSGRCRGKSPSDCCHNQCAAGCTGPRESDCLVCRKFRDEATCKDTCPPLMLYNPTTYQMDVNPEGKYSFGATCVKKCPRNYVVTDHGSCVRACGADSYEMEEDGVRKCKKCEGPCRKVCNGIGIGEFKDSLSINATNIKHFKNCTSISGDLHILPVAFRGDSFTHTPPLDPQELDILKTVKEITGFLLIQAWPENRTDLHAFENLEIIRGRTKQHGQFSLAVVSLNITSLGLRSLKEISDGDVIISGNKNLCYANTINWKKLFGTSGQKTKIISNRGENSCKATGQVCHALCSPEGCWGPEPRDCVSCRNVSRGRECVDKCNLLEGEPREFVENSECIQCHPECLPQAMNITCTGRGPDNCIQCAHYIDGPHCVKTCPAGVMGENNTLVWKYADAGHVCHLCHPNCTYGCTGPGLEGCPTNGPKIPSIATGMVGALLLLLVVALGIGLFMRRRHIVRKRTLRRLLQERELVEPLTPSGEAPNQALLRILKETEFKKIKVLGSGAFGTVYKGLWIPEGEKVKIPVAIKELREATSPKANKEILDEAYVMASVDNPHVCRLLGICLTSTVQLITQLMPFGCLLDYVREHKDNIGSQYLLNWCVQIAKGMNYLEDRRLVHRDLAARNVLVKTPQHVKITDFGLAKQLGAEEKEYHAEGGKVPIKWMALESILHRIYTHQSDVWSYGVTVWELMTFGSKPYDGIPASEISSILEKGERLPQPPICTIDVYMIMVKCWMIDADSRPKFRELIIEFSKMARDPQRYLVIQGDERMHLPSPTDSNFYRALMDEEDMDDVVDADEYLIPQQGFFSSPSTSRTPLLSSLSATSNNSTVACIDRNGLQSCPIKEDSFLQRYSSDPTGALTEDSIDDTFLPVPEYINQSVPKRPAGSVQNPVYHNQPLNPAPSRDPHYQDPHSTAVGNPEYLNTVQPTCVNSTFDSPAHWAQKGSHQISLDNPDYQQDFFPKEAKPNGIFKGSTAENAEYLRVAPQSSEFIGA

EPHA3 = EPHA3 (Homo sapiens, UniProt P29320)
ERK4 = target: T2, ERK4 (Homo sapiens, UniProt P31152)
T2 construct: gene MAPK4

FLT3(ITD) = FLT3(ITD) (Homo sapiens, UniProt P36888, ITD)
FLT3(ITD,F691L) = FLT3(ITD,F691L) (Homo sapiens, UniProt P36888, F691L/ITD)
FLT3(R834Q) = FLT3(R834Q) (Homo sapiens, UniProt P36888, R834Q)
ITK = ITK (Homo sapiens, UniProt Q08881)
KIT(L576P) = KIT(L576P) (Homo sapiens, UniProt P10721, L576P)
KIT(V559D,T670I) = KIT(V559D,T670I) (Homo sapiens, UniProt P10721, T670I/V559D)
LIMK2 = LIMK2 (Homo sapiens, UniProt P53671)
MAST1 = MAST1 (Homo sapiens, UniProt Q9Y2H9)
MLCK = target: T3, MLCK (Homo sapiens, UniProt Q32MK0)
T3 construct: gene MYLK3

MYO3B = MYO3B (Homo sapiens, UniProt Q8WXR4)
MYO3B, sequence (Q8WXR4 whole entry): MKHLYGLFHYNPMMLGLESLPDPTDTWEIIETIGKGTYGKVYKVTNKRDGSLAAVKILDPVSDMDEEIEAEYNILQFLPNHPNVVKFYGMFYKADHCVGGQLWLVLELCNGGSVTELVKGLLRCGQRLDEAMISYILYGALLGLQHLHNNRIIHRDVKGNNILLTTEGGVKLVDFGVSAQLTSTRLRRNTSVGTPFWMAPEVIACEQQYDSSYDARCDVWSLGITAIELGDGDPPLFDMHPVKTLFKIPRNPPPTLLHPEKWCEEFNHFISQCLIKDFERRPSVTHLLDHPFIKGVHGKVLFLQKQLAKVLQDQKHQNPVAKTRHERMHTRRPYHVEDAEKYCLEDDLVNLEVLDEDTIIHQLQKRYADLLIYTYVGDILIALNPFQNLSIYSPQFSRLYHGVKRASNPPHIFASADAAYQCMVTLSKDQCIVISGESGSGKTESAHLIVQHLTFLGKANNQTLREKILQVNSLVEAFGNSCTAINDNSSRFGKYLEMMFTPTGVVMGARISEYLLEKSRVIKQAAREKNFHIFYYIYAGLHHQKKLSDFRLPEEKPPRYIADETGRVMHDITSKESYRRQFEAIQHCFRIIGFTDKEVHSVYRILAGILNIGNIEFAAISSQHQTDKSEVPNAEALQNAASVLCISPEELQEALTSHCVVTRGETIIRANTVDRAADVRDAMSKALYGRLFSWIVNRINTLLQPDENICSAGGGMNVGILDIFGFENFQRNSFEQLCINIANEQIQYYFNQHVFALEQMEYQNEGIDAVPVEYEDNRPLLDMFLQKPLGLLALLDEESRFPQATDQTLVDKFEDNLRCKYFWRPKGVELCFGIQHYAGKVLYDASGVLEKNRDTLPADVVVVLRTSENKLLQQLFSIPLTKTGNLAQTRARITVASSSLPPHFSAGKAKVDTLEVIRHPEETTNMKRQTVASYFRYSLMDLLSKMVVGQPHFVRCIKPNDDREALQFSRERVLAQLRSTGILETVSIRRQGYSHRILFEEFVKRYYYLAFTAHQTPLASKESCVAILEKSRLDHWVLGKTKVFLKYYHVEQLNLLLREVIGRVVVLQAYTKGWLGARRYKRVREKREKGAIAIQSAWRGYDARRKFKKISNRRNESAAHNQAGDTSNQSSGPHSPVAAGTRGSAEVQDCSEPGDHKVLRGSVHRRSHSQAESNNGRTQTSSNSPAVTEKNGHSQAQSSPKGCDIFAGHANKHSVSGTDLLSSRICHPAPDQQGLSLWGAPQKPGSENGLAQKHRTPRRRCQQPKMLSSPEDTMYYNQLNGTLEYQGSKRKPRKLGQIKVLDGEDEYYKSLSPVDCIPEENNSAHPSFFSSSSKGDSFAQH

PIK3CA(H1047Y) = PIK3CA(H1047Y) (Homo sapiens, UniProt P42336, H1047Y)
PRKD2 = PRKD2 (Homo sapiens, UniProt Q9BZL6)
ROS1 = ROS1 (Homo sapiens, UniProt P08922)
SLK = SLK (Homo sapiens, UniProt Q9H2G2)
SLK, sequence (Q9H2G2 whole entry): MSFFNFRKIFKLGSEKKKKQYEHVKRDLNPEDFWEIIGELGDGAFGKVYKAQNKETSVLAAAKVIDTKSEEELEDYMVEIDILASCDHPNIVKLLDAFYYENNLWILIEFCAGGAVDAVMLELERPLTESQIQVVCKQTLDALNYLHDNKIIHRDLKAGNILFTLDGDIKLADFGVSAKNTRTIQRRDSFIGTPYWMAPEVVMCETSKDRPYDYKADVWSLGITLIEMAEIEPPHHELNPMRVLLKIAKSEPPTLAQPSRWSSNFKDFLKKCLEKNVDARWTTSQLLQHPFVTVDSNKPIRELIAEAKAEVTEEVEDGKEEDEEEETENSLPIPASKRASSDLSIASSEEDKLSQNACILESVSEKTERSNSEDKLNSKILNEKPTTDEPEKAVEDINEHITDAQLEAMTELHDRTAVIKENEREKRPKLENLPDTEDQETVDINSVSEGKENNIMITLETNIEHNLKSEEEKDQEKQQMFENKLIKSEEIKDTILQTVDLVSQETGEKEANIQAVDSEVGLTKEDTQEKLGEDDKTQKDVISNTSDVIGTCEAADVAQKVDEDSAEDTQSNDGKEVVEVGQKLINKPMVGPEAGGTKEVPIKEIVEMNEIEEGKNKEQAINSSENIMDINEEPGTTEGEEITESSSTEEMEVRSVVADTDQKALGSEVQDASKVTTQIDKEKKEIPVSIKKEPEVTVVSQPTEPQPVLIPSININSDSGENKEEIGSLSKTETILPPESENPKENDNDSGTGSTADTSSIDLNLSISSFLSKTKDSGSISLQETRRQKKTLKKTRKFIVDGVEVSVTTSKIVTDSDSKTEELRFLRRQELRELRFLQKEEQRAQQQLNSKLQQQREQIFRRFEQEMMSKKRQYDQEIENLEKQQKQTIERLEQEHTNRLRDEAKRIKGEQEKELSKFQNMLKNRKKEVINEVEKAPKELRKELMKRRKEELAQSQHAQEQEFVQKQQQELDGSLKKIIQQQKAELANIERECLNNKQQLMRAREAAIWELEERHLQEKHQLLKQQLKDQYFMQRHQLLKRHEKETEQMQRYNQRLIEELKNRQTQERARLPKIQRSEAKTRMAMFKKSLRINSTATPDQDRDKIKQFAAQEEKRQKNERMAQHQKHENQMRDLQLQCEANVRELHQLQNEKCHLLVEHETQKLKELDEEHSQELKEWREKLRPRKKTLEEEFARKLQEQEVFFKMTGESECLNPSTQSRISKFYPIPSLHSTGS

STK39 = STK39 (Homo sapiens, UniProt Q9UEW8)
TAOK1 = TAOK1 (Homo sapiens, UniProt Q7L7X3)
[1] = target: T4, TYK2(JH1domain-catalytic) (Homo sapiens, UniProt P29597)
T4 construct: JH1domain-catalytic

T1 sequence (P42679 whole entry): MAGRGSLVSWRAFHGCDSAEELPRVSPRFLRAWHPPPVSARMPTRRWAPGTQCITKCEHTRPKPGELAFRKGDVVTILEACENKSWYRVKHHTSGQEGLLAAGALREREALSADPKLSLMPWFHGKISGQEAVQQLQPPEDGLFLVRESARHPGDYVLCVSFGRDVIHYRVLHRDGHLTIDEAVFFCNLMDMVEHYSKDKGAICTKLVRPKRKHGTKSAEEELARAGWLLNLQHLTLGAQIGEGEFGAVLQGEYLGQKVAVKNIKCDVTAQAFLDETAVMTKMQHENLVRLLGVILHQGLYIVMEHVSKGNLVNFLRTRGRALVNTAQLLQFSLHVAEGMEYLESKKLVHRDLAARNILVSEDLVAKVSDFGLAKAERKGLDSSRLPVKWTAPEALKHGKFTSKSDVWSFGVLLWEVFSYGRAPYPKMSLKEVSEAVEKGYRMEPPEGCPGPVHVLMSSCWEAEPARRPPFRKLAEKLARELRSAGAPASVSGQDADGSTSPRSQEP
CAMK2G, sequence (Q13555 whole entry): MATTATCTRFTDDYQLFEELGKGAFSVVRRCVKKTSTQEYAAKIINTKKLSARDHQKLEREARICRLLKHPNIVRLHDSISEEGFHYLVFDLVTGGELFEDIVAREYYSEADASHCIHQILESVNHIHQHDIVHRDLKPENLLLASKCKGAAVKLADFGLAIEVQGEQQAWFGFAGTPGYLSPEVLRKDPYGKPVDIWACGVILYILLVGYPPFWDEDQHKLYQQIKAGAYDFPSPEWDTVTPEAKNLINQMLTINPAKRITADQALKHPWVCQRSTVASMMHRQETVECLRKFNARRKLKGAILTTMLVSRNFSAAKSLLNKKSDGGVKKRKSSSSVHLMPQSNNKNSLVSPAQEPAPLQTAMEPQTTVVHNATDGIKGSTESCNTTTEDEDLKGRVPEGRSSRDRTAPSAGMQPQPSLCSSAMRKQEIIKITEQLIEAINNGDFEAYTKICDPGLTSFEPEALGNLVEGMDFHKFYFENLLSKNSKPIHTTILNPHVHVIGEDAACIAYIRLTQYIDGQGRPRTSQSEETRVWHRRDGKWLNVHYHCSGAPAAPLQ

Compound `Cc1ccc(NC(=O)c2cccc(C(F)(F)F)c2)cc1Nc1cc(-c2cccnc2)nc2[nH]ccc12` [HZX-02-059] has a remaining binding at 1 µM (ACVRL1) of 75%, a remaining binding at 1 µM (CAMK2G) of 97% and a remaining binding at 1 µM (CASK) of 92%. For the same compound, the remaining binding at 1 µM (CTK) was 56%, the remaining binding at 1 µM (EGFR(L861Q)) was 76% and the remaining binding at 1 µM (EPHA3) was 27%. It also gave a remaining binding at 1 µM (ERK4) of 99%, a remaining binding at 1 µM (FLT3(ITD)) of 79% and a remaining binding at 1 µM (FLT3(ITD,F691L)) of 100%. For the same compound, the remaining binding at 1 µM (FLT3(R834Q)) was 100%, the remaining binding at 1 µM (ITK) was 100% and the remaining binding at 1 µM (KIT(L576P)) was 0.3%. The remaining binding at 1 µM (KIT(V559D,T670I)) was 80%, the remaining binding at 1 µM (LIMK2) was 95% and the remaining binding at 1 µM (MAST1) was 100%. The remaining binding at 1 µM (MLCK) was 100%, the remaining binding at 1 µM (MYO3B) was 97% and the remaining binding at 1 µM (PIK3CA(H1047Y)) was 88%. It also gave a remaining binding at 1 µM (PRKD2) of 92%, a remaining binding at 1 µM (ROS1) of 72% and a remaining binding at 1 µM (SLK) of 100%. The remaining binding at 1 µM (STK39) was 94%, the remaining binding at 1 µM (TAOK1) was 100% and the remaining binding at 1 µM [1] was 100%.

Source: paper PMC8799717, “Pharmacological targeting PIKfyve and tubulin as an effective treatment strategy for double-hit lymphoma” (Cell Death Discovery, 2022)
